# Where two headings read alike, the source gives them in different places.
# Columns and labels:
# [1] = target: T1, full length recombinant Pim-1 protein (Homo sapiens, UniProt P11309); test: Pim-1 enzyme assay (HTRF, phosphorylation of biotinylated-BAD (S112) peptide); type: biochemical; conditions: enzyme assay, Pim-1; read-out: Pim_1_IC50
# T1 construct: by full length recombinant Pim-1, Pim-2, or Pim-3 protein; hexahistidine tag followed by a thrombin cleavage site (N); made in house; host or cells: Sf9 (baculovirus) or E. coli (pET28)
# T1 sequence (P11309 whole entry): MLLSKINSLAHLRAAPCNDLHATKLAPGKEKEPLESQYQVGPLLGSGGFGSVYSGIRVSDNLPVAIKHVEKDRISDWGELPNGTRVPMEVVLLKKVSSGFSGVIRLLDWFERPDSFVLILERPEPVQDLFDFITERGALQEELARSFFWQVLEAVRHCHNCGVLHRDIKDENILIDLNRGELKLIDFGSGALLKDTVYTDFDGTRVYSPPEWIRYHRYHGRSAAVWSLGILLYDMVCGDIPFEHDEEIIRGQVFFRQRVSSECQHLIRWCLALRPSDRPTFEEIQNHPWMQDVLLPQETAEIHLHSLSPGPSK
# Outline: (§1)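 Full-length His-tagged Pim-1 or Pim-2 (Sf9 or E. coli expressed, purified) phosphorylated biotinylated BAD (S112) peptide in 60 mM Hepes pH 7.0, 0.05% BSA, 2 mM DTT. Reaction stopped with 3 mM EDTA; phospho-BAD read by HTRF with Eu anti-phospho-BAD antibody and streptavidin-APC. IC50 from percent of control by 4-parameter logistic fit.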
# [2] = target: T2, full length recombinant Pim-2 protein (Homo sapiens, UniProt Q9P1W9); test: Pim-2 enzyme assay (HTRF, phosphorylation of biotinylated-BAD (S112) peptide); type: biochemical; conditions: enzyme assay, Pim-2; read-out: Pim2_IC50
# T2 construct: by full length recombinant Pim-1, Pim-2, or Pim-3 protein; hexahistidine tag followed by a thrombin cleavage site (N); made in house; host or cells: Sf9 (baculovirus) or E. coli (pET28)
# T2 sequence (Q9P1W9 whole entry): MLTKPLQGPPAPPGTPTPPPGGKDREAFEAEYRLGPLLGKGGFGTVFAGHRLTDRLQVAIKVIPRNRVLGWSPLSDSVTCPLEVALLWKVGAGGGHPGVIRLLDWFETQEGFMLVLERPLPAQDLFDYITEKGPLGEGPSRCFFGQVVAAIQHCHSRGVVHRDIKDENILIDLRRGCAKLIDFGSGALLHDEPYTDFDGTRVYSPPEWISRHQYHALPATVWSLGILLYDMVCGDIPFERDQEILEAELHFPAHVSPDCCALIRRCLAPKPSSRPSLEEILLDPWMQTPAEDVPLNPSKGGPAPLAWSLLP
# Outline: as §1
# [3] = target: T3, full length recombinant Pim-3 protein (Homo sapiens, UniProt Q86V86); test: Pim-3 enzyme assay (HTRF, phosphorylation of biotinylated-BAD (S112) peptide); type: biochemical; conditions: read-out: Pim3 IC50
# T3 construct: by full length recombinant Pim-1, Pim-2, or Pim-3 protein; purchased Millipore (UK)
# Outline: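 Full-length recombinant Pim-3 phosphorylates biotinylated BAD (S112) peptide in 60 mM Hepes pH 7.0, 0.05% BSA, 2 mM DTT; reaction stopped with 3 mM EDTA. Phospho-BAD detected by HTRF (Eu anti-phospho-BAD S112 antibody, streptavidin-APC). IC50 from percent-of-control values fitted to a 4-parameter logistic model.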
# [4] = target: T4, Pim-1 stably transfected into the U2OS human osteogenic sarcoma line (Homo sapiens, UniProt P11309); test: Pim cell assay, phospho-BAD normalized against total BAD, U2OS stably transfected with Pim-1; type: cell-based; conditions: read-out: Pim1_Cell_IC50
# T4 construct: expressed in transfected cells; host or cells: U2OS human osteogenic sarcoma line
# T4 sequence (P11309 whole entry): as the sequence (P11309 whole entry) above
# Outline: (§2)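 U2OS cells stably expressing Pim-1 or Pim-2 were plated overnight at 37 °C, then dosed over a 10-point curve (final 0.3% DMSO; DMSO alone as high control). Lysates assayed for phospho- and total BAD by Meso Scale immunoassay; % phosphoprotein = (2×phospho)/(phospho+total)×100.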
# [5] = target: T5, Pim-2 stably transfected into the U2OS human osteogenic sarcoma line (Homo sapiens, UniProt Q9P1W9); test: Pim cell assay, phospho-BAD normalized against total BAD, U2OS stably transfected with Pim-2; type: cell-based; conditions: read-out: Pim2_Cell_IC50; also: high dose 31.6 µM
# T5 construct: expressed in transfected cells; host or cells: U2OS human osteogenic sarcoma line
# T5 sequence (Q9P1W9 whole entry): as the sequence (Q9P1W9 whole entry) above
# Outline: as §2
# [6] = U2OS cells stably transfected with Pim-1, phospho-BAD, high dose […]
# [7] = U2OS cells stably transfected with Pim-2, phospho-BAD, high dose […]
Compound,IC50 [1],IC50 [2],IC50 [3],"IC50 [4, 6]","IC50 [5, 7]",IC50 [4],IC50 [5]
"c1cc2[nH]nc(-c3cncc(O[C@@H]4CCCNC4)n3)c2cc1-c1cncc(NC2CC2)n1 [Example 158, N-cyclopropyl-6-(3-(6-((3R)-3-piperidinyloxy)-2-pyrazinyl)-1H-indazol-5-yl)-2-pyrazinamine]",1 nM,121 nM,1 nM,36 nM,> 15800 nM,–,–
"O[C@H]1CCCN(c2cncc(-c3n[nH]c4ccc(-c5c(F)cccc5F)cc34)n2)C1 [Example 163, (3S)-1-(6-(5-(2,6-difluorophenyl)-1H-indazol-3-yl)-2-pyrazinyl)-3-piperidinol]",58 nM,969 nM,49 nM,1630 nM,> 31600 nM,–,–
"CN(c1cncc(-c2n[nH]c3ccc(-c4c(F)cccc4F)cc23)n1)C1CCCNC1 (stereo not drawn) [Example 178, 6-(5-(2,6-difluorophenyl)-1H-indazol-3-yl)-N-methyl-N-3-piperidinyl-2-pyrazinamine]",6 nM,61 nM,6 nM,582 nM,14300 nM,–,–
"CC(C)Nc1cncc(-c2n[nH]c3ccc(-c4c(F)cccc4F)cc23)n1 [Example 182, 6-(5-(2,6-difluorophenyl)-1H-indazol-3-yl)-N-(1-methylethyl)-2-pyrazinamine]",40 nM,556 nM,49 nM,2460 nM,> 31600 nM,–,–
"Fc1cccc(F)c1-c1ccc2[nH]nc(-c3cncc(Nc4ccccc4)n3)c2c1 [Example 184, 6-(5-(2,6-difluorophenyl)-1H-indazol-3-yl)-N-phenyl-2-pyrazinamine]",139 nM,1040 nM,233 nM,> 31600 nM,> 31600 nM,–,–
"Fc1cccc(F)c1-c1ccc2[nH]nc(-c3cncc(OC4CCNC4)n3)c2c1 (stereo not drawn) [Example 187, 5-(2,6-difluorophenyl)-3-(6-(3-pyrrolidinyloxy)-2-pyrazinyl)-1H-indazole]",50 nM,131 nM,22 nM,1830 nM,24200 nM,–,–
"C[C@H]1CCNC[C@@H]1Oc1cncc(-c2n[nH]c3ccc(-c4c(F)cccc4F)cc23)n1 [Example 198, 5-(2,6-difluorophenyl)-3-(6-(((3R,4S)-4-methyl-3-piperidinyl)oxy)-2-pyrazinyl)-1H-indazole]",4 nM,13 nM,5 nM,146 nM,5090 nM,–,–
"C[C@H]1CCNC[C@H]1Oc1cncc(-c2n[nH]c3ccc(-c4c(F)cccc4F)cc23)n1 [Example 199, 5-(2,6-difluorophenyl)-3-(6-(((3S,4S)-4-methyl-3-piperidinyl)oxy)-2-pyrazinyl)-1H-indazole]",5 nM,16 nM,4 nM,400 nM,3410 nM,–,–
"Fc1cccc(F)c1-c1ccc2[nH]cc(-c3cncc(NC4CCNCC4)n3)c2c1 [Example 205, 6-(5-(2,6-difluorophenyl)-1H-indol-3-yl)-N-4-piperidinyl-2-pyrazinamine]",4 nM,29 nM,4 nM,273 nM,4330 nM,–,–
"Fc1cccc(F)c1-c1ccc2[nH]cc(-c3cncc(OC4CCNCC4)n3)c2c1 [Example 206, 5-(2,6-difluorophenyl)-3-(6-(4-piperidinyloxy)-2-pyrazinyl)-1H-indole]",2 nM,54 nM,6 nM,326 nM,20400 nM,–,–
"Fc1cccc(F)c1-c1ccc2[nH]cc(-c3cncc(N[C@@H]4CCNC4)n3)c2c1 [Example 208, 6-(5-(2,6-difluorophenyl)-1H-indol-3-yl)-N-((3R)-3-pyrrolidinyl)-2-pyrazinamine]",2 nM,15 nM,4 nM,381 nM,4620 nM,–,–
"Fc1cccc(F)c1-c1ccc2[nH]cc(-c3nccc(O[C@@H]4CCCNC4)n3)c2c1 [Example 209, 5-(2,6-difluorophenyl)-3-(4-((3R)-3-piperidinyloxy)-2-pyrimidinyl)-1H-indole]",36 nM,89 nM,49 nM,–,–,1180 nM,30300 nM
"Fc1cccc(F)c1-c1ccc2[nH]cc(-c3nccc(OC4CCNCC4)n3)c2c1 [Example 211, 5-(2,6-difluorophenyl)-3-(4-(4-piperidinyloxy)-2-pyrimidinyl)-1H-indole]",86 nM,445 nM,61 nM,–,–,3790 nM,> 31600 nM
"CC(C)Oc1cncc(-c2ccc3[nH]cc(-c4cncc(O[C@@H]5CCCNC5)n4)c3c2)n1 [Example 213, 5-(6-(1-methylethoxy)-2-pyrazinyl)-3-(6-((3R)-3-piperidinyloxy)-2-pyrazinyl)-1H-indole]",22 nM,343 nM,40 nM,–,–,1370 nM,18900 nM

# Continued by falling IC50 [1], values first:
IC50 [1],IC50 [2],IC50 [3],"IC50 [4, 6]","IC50 [5, 7]",IC50 [4],IC50 [5],Compound
76 nM,643 nM,81 nM,2130 nM,> 31600 nM,–,–,"CCNc1cncc(-c2n[nH]c3ccc(-c4c(F)cccc4F)cc23)n1 [Example 180, 6-(5-(2,6-difluorophenyl)-1H-indazol-3-yl)-N-ethyl-2-pyrazinamine]"
44 nM,679 nM,44 nM,4260 nM,> 31600 nM,–,–,"CC(C)(C)Nc1cncc(-c2n[nH]c3ccc(-c4c(F)cccc4F)cc23)n1 [Example 183, N-tert-butyl-6-(5-(2,6-difluorophenyl)-1H-indazol-3-yl)-2-pyrazinamine]"
24 nM,223 nM,36 nM,1220 nM,18800 nM,–,–,"Fc1cccc(F)c1-c1ccc2[nH]nc(-c3ccnc(O[C@@H]4CCCNC4)n3)c2c1 [Example 190, 5-(2,6-difluorophenyl)-3-(2-((3R)-3-piperidinyloxy)-4-pyrimidinyl)-1H-indazole]"
19 nM,87 nM,6 nM,625 nM,> 31600 nM,–,–,"FC(F)(F)c1cccc(-c2ccc3[nH]nc(-c4cncc(O[C@@H]5CCCNC5)n4)c3c2)n1 [Example 142, 3-(6-((3R)-3-piperidinyloxy)-2-pyrazinyl)-5-(6-(trifluoromethyl)-2-pyridinyl)-1H-indazole]"
15 nM,185 nM,18 nM,997 nM,> 31600 nM,–,–,"N[C@@H]1CCN(c2cncc(-c3c[nH]c4ccc(-c5c(F)cccc5F)cc34)n2)C1 [Example 212, (3R)-1-(6-(5-(2,6-difluorophenyl)-1H-indol-3-yl)-2-pyrazinyl)-3-pyrrolidinamine]"
5 nM,34 nM,25 nM,873 nM,> 31600 nM,–,–,"CC(C)Oc1cc(-c2ccc3[nH]nc(-c4cncc(O[C@@H]5CCCNC5)n4)c3c2)ccn1 [Example 143, 5-(2-(1-methylethoxy)-4-pyridinyl)-3-(6-((3R)-3-piperidinyloxy)-2-pyrazinyl)-1H-indazole]"
4 nM,15 nM,7 nM,211 nM,7580 nM,–,–,"C[C@H]1CCNC[C@@H]1Oc1cncc(-c2n[nH]c3ccc(-c4c(F)cccc4F)cc23)n1 [Example 195, 5-(2,6-difluorophenyl)-3-(6-(((3R,4S)-4-methyl-3-piperidinyl)oxy)-2-pyrazinyl)-1H-indazole]"
2 nM,52 nM,3 nM,561 nM,> 31600 nM,–,–,"NC1CCN(c2nccc(-c3n[nH]c4ccc(-c5c(F)cccc5F)cc34)n2)CC1 [Example 194, 1-(4-(5-(2,6-difluorophenyl)-1H-indazol-3-yl)-2-pyrimidinyl)-4-piperidinamine]"
1 nM,66 nM,5 nM,611 nM,> 31600 nM,–,–,"N[C@H]1CCCN(c2cncc(-c3c[nH]c4ccc(-c5c(F)cccc5F)cc34)n2)C1 [Example 201, (3S)-1-(6-(5-(2,6-difluorophenyl)-1H-indol-3-yl)-2-pyrazinyl)-3-piperidinamine]"
1 nM,11 nM,4 nM,102 nM,3030 nM,–,–,"Fc1cccc(F)c1-c1ccc2[nH]cc(-c3cncc(N[C@@H]4CCCNC4)n3)c2c1 [Example 207, 6-(5-(2,6-difluorophenyl)-1H-indol-3-yl)-N-((3R)-3-piperidinyl)-2-pyrazinamine]"

# — patent publication US9090593B2, “Bicyclic compounds as Pim inhibitors” (AMGEN INC., priority 2010, dated 2015)
